Reference: a compilation of properties of binary mixtures (doi:10.1007/s11814-009-0129-3)

Experiment: xn = mol fraction of the nth substance listed
Settings: 101 kPa

CCCC[n+]1ccn(C)c1.[I-] + [Li+].[B-](F)(F)(F)F
x2 = 0
Settings | electrical conductivity [S/m]
298.15 K | 0.0234
303.15 K | 0.0262
313.15 K | 0.0308
318.15 K | 0.0326
323.15 K | 0.0345

F[B-](F)(F)F.[Li+] + CCCC[n+]1ccn(C)c1.[I-]
electrical conductivity [S/m]
Settings | 298.15 K | 303.15 K | 308.15 K | 313.15 K | 318.15 K | 323.15 K
x1 = 0.1 | 0.0385 | 0.0432 | – | 0.0519 | 0.0577 | 0.0647
x1 = 0.2 | – | 0.0477 | 0.0515 | 0.0584 | 0.0704 | –
x1 = 0.3 | 0.042 | 0.0488 | 0.0505 | 0.0512 | 0.0597 | 0.088
x1 = 0.4 | 0.035 | 0.0392 | 0.0461 | 0.0477 | 0.0513 | 0.0554
x1 = 0.5 | 0.0312 | 0.0373 | 0.0425 | 0.0463 | 0.0501 | 0.0549
